How the values were obtained:
[1] = Cytotoxicity against human HepG2.2.15 cells by MTT assay; type: cell-based, HepG2 2.2.15
Hepatitis B virus [2] = experiment: Antiviral activity against HBV infected in human HepG2.2.15 cells assessed as inhibition of hepatitis B surface antigen secretion by ELISA; type: functional, organism-based; settings: HepG2 2.2.15
Hepatitis B virus [3] = experiment: Antiviral activity against HBV infected in human HepG2.2.15 cells assessed as inhibition of hepatitis B e antigen secretion by ELISA; type: functional, organism-based; settings: HepG2 2.2.15
Hepatitis B virus [4] = experiment: Antiviral activity against HBV infected in human HepG2.2.15 cells assessed as inhibition of DNA replication; type: functional, organism-based; settings: HepG2 2.2.15
[5] = Selectivity index, ratio of CC50 for human HepG2.2.15 cells to IC50 for HBV infected in human HepG2.2.15 cells assessed as inhibition of DNA replication; type: functional
[6] = Selectivity index, ratio of CC50 for human HepG2.2.15 cells to IC50 for HBV infected in human HepG2.2.15 cells assessed as inhibition of hepatitis B e antigen secretion; type: functional

SMILES	CC50 [1] [µM]	IC50 (Hepatitis B virus [2]) [µM]	IC50 (Hepatitis B virus [3]) [µM]	IC50 (Hepatitis B virus [4]) [µM]	Ratio CC50/IC50 [5]	Ratio CC50/IC50 [6]
C=C1CC[C@@H]2[C@](C)(COC(C)=O)[C@H](OC(C)=O)CC[C@@]2(C)[C@@H]1/C=C/C1=CCOC1=O	757	1010	1390	455	–	–
C=C1CC[C@@H]2[C@](C)(COC(=O)/C=C/c3cc(OC)c(OC)c(OC)c3)[C@H](OC(=O)/C=C/c3cc(OC)c(OC)c(OC)c3)CC[C@@]2(C)[C@@H]1C/C=C1\C=COC1=O	> 1830	> 1830	> 253	> 458	–	–
C=C1CC[C@@H]2[C@](C)(CO)[C@H](O)CC[C@@]2(C)[C@@H]1C/C=C(/C(=O)O)[C@H](O)CO	182	–	–	23.2	7.8	–
C=C1CC[C@@H]2[C@](C)(COC(C)=O)[C@H](O)CC[C@@]2(C)[C@@H]1/C=C/C1=CCOC1=O	225	565	2230	69.5	3.2	–
C=C1CC[C@@H]2[C@](C)(COC(=O)c3ccccc3)[C@H](O)CC[C@@]2(C)[C@@H]1C/C=C1\C=COC1=O	82	880	123	20.6	4	–
C=C1CC[C@@H]2[C@](C)(COC(=O)CCCC(=O)O)[C@H](OC(=O)CCCC(=O)O)CC[C@@]2(C)[C@@H]1/C=C/C1=CCOC1=O	> 1710	> 1710	> 1710	> 429	–	–
C=C1CC[C@@H]2[C@](C)(COC(=O)c3cccnc3)[C@H](O)CC[C@@]2(C)[C@@H]1C/C=C1\C=COC1=O	2050	> 1140	> 974	16.3	126	–
C=C1CC[C@@H]2[C@](C)(CO)[C@H](OC(=O)c3ccco3)CC[C@@]2(C)[C@@H]1C/C=C1\C=COC1=O	42	777	586	25.2	1.7	–
C=C1CC[C@@H]2[C@](C)(COC(=O)/C=C/c3cccc(Cl)c3)[C@H](O)CC[C@@]2(C)[C@@H]1/C=C/C1=CCOC1=O	147	207	59.8	136	–	2.5
C=C1CC[C@@H]2[C@](C)(COC(=O)COCC(=O)O)[C@H](OC(=O)COCC(=O)O)CC[C@@]2(C)[C@@H]1/C=C/C1=CCOC1=O	> 1930	> 1930	> 1930	> 483	–	–
C=C1CC[C@@H]2[C@](C)(COC(=O)c3cccs3)[C@H](OC(=O)c3cccs3)CC[C@@]2(C)[C@@H]1C/C=C1\C=COC1=O	1370	1640	1220	–	–	1.1
C=C1CC[C@@H]2[C@](C)(COC(=O)c3ccco3)[C@H](OC(=O)c3ccco3)CC[C@@]2(C)[C@@H]1/C=C/C1=CCOC1=O	1110	1410	1860	242	4.6	–
C=C1CC[C@@H]2[C@](C)(CO)[C@H](OC(=O)/C=C/c3ccccc3)CC[C@@]2(C)[C@@H]1C/C=C1\C=COC1=O	179	466	1170	30.7	5.8	–
C=C1CC[C@@H]2[C@](C)(COC(=O)c3ccccc3C(=O)O)[C@H](OC(=O)c3ccccc3C(=O)O)CC[C@@]2(C)[C@@H]1/C=C/C1=CCOC1=O	> 1620	–	–	104	>15.6	–
C=C1CC[C@@H]2[C@](C)(COC(=O)CCC(=O)O)[C@H](OC(=O)CCC(=O)O)CC[C@@]2(C)[C@@H]1C/C=C1\C=COC1=O	32	1160	243	47.6	–	–
C=C1CC[C@@H]2[C@](C)(COC(=O)/C=C/c3cc(OC)c(OC)c(OC)c3)[C@H](O)CC[C@@]2(C)[C@@H]1C/C=C1\C=COC1=O	325	–	–	22.3	14.6	–

SMILES	CC50 [1] [µM]	IC50 (Hepatitis B virus [2]) [µM]	IC50 (Hepatitis B virus [3]) [µM]	IC50 (Hepatitis B virus [4]) [µM]	Ratio CC50/IC50 [5]	Ratio CC50/IC50 [6]
C=C1CC[C@@H]2[C@](C)(CO)[C@H](OC(=O)/C=C/c3cc(OC)c(OC)c(OC)c3)CC[C@@]2(C)[C@@H]1C/C=C1\C=COC1=O	211	753	518	53.1	3	–
C=C1CC[C@@H]2[C@](C)(COC(=O)/C=C/c3ccccc3)[C@H](O)CC[C@@]2(C)[C@@H]1C/C=C1\C=COC1=O	271	210	516	46.6	5.8	–
C=C1CC[C@@H]2[C@](C)(COC(=O)c3cccnc3OC)[C@H](O)CC[C@@]2(C)[C@@H]1/C=C/C1=CCOC1=O	1340	> 2310	217	> 584	–	6.2
C=C1CC[C@@H]2[C@](C)(C=O)[C@H](O)CC[C@@]2(C)[C@@H]1/C=C/C1=CCOC1=O	122	1840	1950	13.4	9.1	–
C=C1CC[C@@H]2[C@](C)(CO)[C@H](OC(=O)CCCC)CC[C@@]2(C)[C@@H]1C/C=C1\C=COC1=O	126	625	208	69.8	1.82	–
C=C1CC[C@H]2[C@@](C)(CCC(=O)[C@@]2(C)C=O)[C@@H]1/C=C/C1=CCOC1=O	275	394	–	263	1.1	–
C=C1CC[C@@H]2[C@](C)(COC(=O)CCCC)[C@H](O)CC[C@@]2(C)[C@@H]1C/C=C1\C=COC1=O	225	565	2230	69.5	3.2	–
C=C1CC[C@@H]2[C@](C)(COC(=O)c3ccco3)[C@H](O)CC[C@@]2(C)[C@@H]1C/C=C1\C=COC1=O	> 2150	–	> 949	21.4	>100.5	–
C=C1CC[C@@H]2[C@](C)(CO)[C@H](OC(=O)c3ccccc3)CC[C@@]2(C)[C@@H]1C/C=C1\C=COC1=O	103	877	118	21.6	4.8	–
C=C1CC[C@@H]2[C@](C)(COC(=O)CCCC)[C@H](OC(=O)CCCC)CC[C@@]2(C)[C@@H]1C/C=C1\C=COC1=O	757	1010	1390	455	–	–
C=C1CC[C@@H]2[C@](C)(COC(=O)/C=C/c3cccc(OC)c3)[C@H](O)CC[C@@]2(C)[C@@H]1/C=C/C1=CCOC1=O	> 1970	> 1970	1480	> 513	–	–
C=C1CC[C@@H]2[C@](C)(COC(=O)c3cc(=O)c4ccccc4o3)[C@H](O)CC[C@@]2(C)[C@@H]1/C=C/C1=CCOC1=O	171	–	177	36.6	4.7	1
C=C1CC[C@@H]2[C@](C)(CO)[C@H](O)CC[C@@]2(C)[C@@H]1/C=C/C1=CC(C(C)(C)O)OC1=O (stereo partly specified)	122	–	562	394	–	–
C=C1CC[C@H]2[C@@](C)(CCC(=O)[C@@]2(C)C=O)[C@@H]1C/C=C1/C(=O)OC[C@H]1O	155	951	815	51.3	3	–
C=C1CC[C@@H]2[C@](C)(COC(=O)c3cccnc3)[C@H](OC(=O)c3cccnc3)CC[C@@]2(C)[C@@H]1/C=C/C1=CCOC1=O	> 1920	> 1920	> 1920	> 664	–	–
C=C1CC[C@@H]2[C@](C)(COC(=O)c3ccccc3C(=O)O)[C@H](OC(=O)c3ccccc3C(=O)O)CC[C@@]2(C)[C@@H]1C/C=C1\C=COC1=O	> 2040	–	218	22	>92.8	>9.4
